# Data published in US8399662B2, “O-acyloxime derivatives, preparation method thereof, and pharmaceutical composition containing the same for prevention and treatment of cardiovascular disease” (Korea Research Institute of Bioscience and Biotechnology, priority 2004, dated 2013).
# Assays:
# [1] = target: T1, Lp-PLA2 (Homo sapiens, UniProt Q13093); experiment: Measurement of Lp-PLA2 (PAF-AH) activity using [3H]PAF substrate and human LDL as enzyme source; format: biochemical; details: Lp-PLA2 from human LDL, average of two test results, read-out: Inhibition rate at 25 μM
# T1 construct: LDL was isolated from the plasma by discontinuous density gradient ultra centrifugation; from tissue; host or cells: LDL fraction of human blood plasma from normal lipidemic volunteers
# T1 sequence (Q13093 22-441): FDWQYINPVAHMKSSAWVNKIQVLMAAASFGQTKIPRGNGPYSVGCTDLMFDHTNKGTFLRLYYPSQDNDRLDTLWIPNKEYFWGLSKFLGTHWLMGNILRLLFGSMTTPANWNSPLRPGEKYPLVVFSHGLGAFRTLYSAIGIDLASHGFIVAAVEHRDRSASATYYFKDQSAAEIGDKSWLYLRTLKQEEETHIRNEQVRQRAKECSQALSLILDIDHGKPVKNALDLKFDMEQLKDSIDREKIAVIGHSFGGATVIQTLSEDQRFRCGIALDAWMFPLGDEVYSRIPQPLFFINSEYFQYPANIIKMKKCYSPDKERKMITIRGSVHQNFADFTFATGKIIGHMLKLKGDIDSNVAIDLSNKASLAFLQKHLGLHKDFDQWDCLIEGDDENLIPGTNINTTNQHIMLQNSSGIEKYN
# Experimental: Blood was collected from normal lipidemic volunteers. EDTA was used as anticoagulant (1.5 mg/ml of blood). […] LDL was isolated from the plasma by discontinuous density gradient ultra centrifugation. Briefly, the plasma was centrifuged at 100,000×g at 4° C. for 20 hours. […] The LDL fraction in the top of the tube was collected and dialyzed overnight against three changes of phosphate buffer (pH 7.4), containing NaCl (150 mM), in the dark at 4° C. to remove NaBr and EDTA. The LDL in PBS was stored at 4° C. and used within 4 weeks. The purity of the fraction was confirmed by agarose gel electrophoresis and SDS-PAGE. Concentration of LDL protein was determined using bovine serum albumin (BSA) as a standard.
# Lp-PLA2, the enzyme is also known as platelet-activating factor acetylhydrolase (PAF-AH), activity was measured using [^3H]PAF as a substrate. […] The reaction mixture, containing 20 μL of diluted human LDL (Lp-PLA2 source, 4-5 μg protein), 120 μL of PBS-EDTA, and 20 μL of test sample, was preincubated at 37° C. for 15 min. The reaction was initiated by the addition of 40 μL micelle substrate (0.1 μCi, final conc. 80 μM PAF) to measure initial rates of PAF-AH activity. […] The raw counts were corrected for background using a nonenzyme-containing blank and were expressed as nanomoles of PAF degraded per hour per milligram of protein.
# [2] = in vivo; details: both, ICR, mouse, in vivo, po
# Experimental: (§1) Specific pathogens free ICR mice of 4 weeks old (12 females and 12 males; 3 females and 3 males/dosage group) were raised in an animal chamber controlled with the temperature of 22±3° C., humidity of 55±10%, and illumination of 12L/12D cycle. The mice were acclimated for a week before the test. Feed for a test animal (CJ Corp., for mouse and rat) and water were supplied after sterilization and taken by the mice without any restriction.
# (§2) The amount of 0.04 ml (100 mg/kg), 0.2 ml (500 mg/kg), and 0.4 ml (1,000 mg/kg) per mouse weight of 20 g was dosed individually to the mice by oral administration. The samples were dosed only one time, and adverse effect and mortality were observed during 7 days after the dosing as follows.
# (§3) Additionally, on seventh day after the administration, the animals were sacrificed and dissected to examine internal organs with naked eye. Weight loss due to (E)-3,4-di-fluorobenzaldehyde O-benzoyloxime or (E)-2,3-di-fluorobenzaldehyde O-morpholine-4-carbonyloxime was observed by measuring weight changes at the intervals of 1 day since the dosage.
# [3] = test system: ICR mice; experiment: in vivo; details: single oral dose up to 1,000 mg/kg, ICR mice, 7 days
# Experimental: as §1, §2, §3
inhibition at 25 µM [1],SMILES,LD50 at 7 days [2],"toxicity (clinical symptoms, weight change, blood test, biochemical test of blood, necropsy) [3]"
29%,"O=C(O/N=C(\OC(=O)c1ccccc1)c1ccccc1)c1ccccc1 [Example 16, (E)-1-benzoic acid-benzaldehyde O-benzoyloxime]",–,–
–,"O=C(O/N=C/c1cccc(F)c1F)N1CCOCC1 [Example 30, (E)-2,3-di-fluorobenzaldehyde O-morpholine-4-carbonyloxime]",> 1000 mg/kg,did not show any toxicity
–,"O=C(O/N=C/c1ccc(F)c(F)c1)c1ccccc1 [Example 21, (E)-3,4-di-fluorobenzaldehyde O-benzoyloxime]",> 1000 mg/kg,–
